Patent US20120196335A1, “LIGF-TYPE TRANSFORMANTS FOR BIOCONVERSION OF LIGNIN-DERIVED COMPOUNDS” (priority 2010, published 2012)

B1: ligE1: N. aromaticivorans beta-etherase polypeptide, glutathione S-transferase-like protein, GenBank ABD26841.1, SEQ ID NO:101 (protein)
chain: MAANNTITFYDLALSTGATISPFVWATKYALKHKGFDLDVVPGGFTGILERTGGKTERLPAIVDDGEFVLDSWGIVEYLDAKYPDRPVLIPHESVAATLKALDNWFWNAAVGPWMFCFCQDYRDLSLPQDHEYVTHSREKMLGRKLEEVQAGREERLPKISAALEPLRAALAQHQWLGGSSPNYADYRIMGGILFTASVCKTPVLANDDPLRDWIERCLDLYGGLGRHPGLFPLFGLEQREGDPDLFNRAAGQGGIYKRNTGPESTRAETQRITEGMKK
B2: LigF2: N. aromaticivorans beta-etherase polypeptide, glutathione S-transferase-like protein, GenBank ABD27301.1, SEQ ID NO:541 (protein)
chain: MALKYYHAEPLANSLKSMVPLKEKGLAYESIYVDLHKFEQHQPWFTAINPEGQVPVLDHDGTIITHTTVINEYLEDAFPDAQPADAPLRPRDPVGAARMRYWNKFIDEHVMNYVSMHGWHRMVGVIARNIASGDFEKLLESIPLPDQRKKWATARSGFSEADLANATAKIEYALDKVEKQLGETKWLAGDTYTLADINFYSHCGAMVERMFPEMEVARRAPRLCEWRDRVAARPAVAEALKSEDRTAPGLRVWSGEVR
B3: ligE: S. paucimobilis beta-etherase, positive control, GenBank BAA02032.1, SEQ ID NO:1 (protein)
chain: MARNNTITLYDLQLESGCTISPYVWRTKYALKHKGFDIDIVPGGFTGILERTGGRSERVPVIVDDGEWVLDSWVIAEYLDEKYPDRPMLFEGPTQKNLMKFLDNWLWSTAVGPWFRCYILDYHDLSLPQDRDYVRWSREQWFLGGQRLEDVQAGREDRLPLVPPTLEPFRRILAETKWLGGDQPNFADYSALAVFLWTASVARTPPLTEDDPLRDWLDRGFDLFDGLGRHPGMNPLFGLKLREGDPEPFVRQTGPAGAGGQALNKGPQTTKMPPRVAEKAD
B4: ABD26530.1: N. aromaticivorans putative beta-etherase polypeptide LigF-1, SEQ ID NO:539 (protein)
chain: MVIPLGEDNTIMLKLYSFGPAANSMKPLLTVFEKGLDVEKHRLDPAKFEHHTDWFKAINPRGQVPALVDGDKVVTESTVICEYLEDEYPTEVALRPADSFGKAQMRIWTKWVDEYFCWCVSTIGWHRYVGNMVKSLSDAEFEEKVKAIPVIEQQVKWRRAREGFPQDMLDEEMRKIAYSVRKLDDHLADHEWLVPGQYTLADICNFAIANGMQFGFAELVNKQDTPHLVRWIEQINERPAVKQMFAQVELEKLGPRE
B5: ABD27309.1: N. aromaticivorans putative beta-etherase polypeptide LigF-3, SEQ ID NO:545 (protein)
chain: MDEVSLYHWEPNANSGKPMLALMEKGVPFSSHYIDMLQFDQHKPEYLAINPQGTIPAMTHNGQVLTESTAIMEYVNDRFDGPDLMPADAQDRWRVRWWMKFMDQWLGPSFSMIGWSVFVGPMVRQRDPAELAAAIDRIPLPERRTAWRKAINGDFSESEMAESRRRVGLGIAKLEEELGKRPYVGSNQYSLADINIFNSTYSLPISQPDLAGKDRTPNIMRWLKRVYTREAVKKTWAMGKTDLAHRYGLIMAEIEG
B6: LigG: S. paucimobilis glutathione-eliminating glutathione S transferase, ligG gene product (protein)
chain: MSGASARSLGKGSAPPGPVPEGQIRVYSMRFCPFAQRTLMVLKAKGIRHEIININLKNKPEWFFEKNPFGLVPVLENTQGHLITESVITCEYLDEAYPEKKLFPDDPYEKACQKMTFELFSKVPSLVTSFIRAKRKEDHPGIKEELKKEFSKLEEAMANKRTAFFGGNSLSMIDYLIWPWFQRLEALELNECIDHTPKLKLWMATMQEDPVASSHFIDAKTYRDYLSLYLQDSPEACDYGL

System: not listed separately
Test: in vitro biochemical assay for beta-etherase activity on fluorescent substrate MUAV (clarified E. coli cell extracts)
Conditions: 0.1 mM MUAV substrate; E. coli cell extracts expressing the protein
Source text: The model substrate synthesis 150 for use in the biochemical screening for selective activity can be outsourced through a contract research organization (CRO). The enzyme discovery effort can initially be focused on identifying potential beta-etherase candidate genes identified through bioinformatic methods. […] The fluorescent substrate α-O-(β-methylumbelliferyl)acetovanillone (MUAV), for example, can be used in in vitro assays to identify beta-etherase function (Acme Biosciences, Mt. View, Calif.). The formation of 4 methylumbelliferone (4MU) upon hydrolysis of the aryl ether bond can be monitored by fluorescence, for example, at λex=365 nm and λem=450 nm (or 460 nm).
The enzyme screening 155 is done to identify novel etherases 160. […] Expression of the beta-etherase genes can be done in 5 ml or 25 ml samples of the recombinant E. coli strains in LB medium using induction with IPTG. Following induction, and cell harvest, cell pellets can be lysed using the BPER (Invitrogen) cell lysis system. […] The formation of 4 methylumbelliferone (4MU) upon hydrolysis of the aryl ether bond in MUAV can be monitored by fluorescence at λex=365 nm and λem=460 nm, and can provide quantitative measurement of beta-etherase function. Cell extracts of E. coli transformed with the S. paucimobilis ligE and ligF genes can be the assay positive controls. Test or unknown samples can include, for example, E. coli strains expressing putative beta-etherase genes from N. aromaticovorans.
This example describes a method for gene expression in E. coli, as well as beta-etherase biochemical assays. Expression of known and putative beta-etherase genes was performed using 5 ml cultures of the recombinant E. coli strains described herein in Luria Broth medium by induction of gene expression using isopropylthiogalactoside (IPTG) to a final concentration of 0.1 mM. Following induction, and cell harvest, the cells were disrupted using either sonication or the BPER (Invitrogen) cell lysis system.
In vitro reactions were performed in a total volume of 200 ul and contained: 25 mM TrisHCl pH 7.5; 0.5 mM dithiothreitol; 1 mM glutathione; 0.05 mM or 0.1 mM MUAV; 10 ul of clarified cell extract used to initiate the reactions. Following incubation for 2.5 hours at room temperature, a 50 ul sample of the reactions was terminated using 150 uL of 300 mM glycine/NaOH buffer pH 9. The formation of 4 methylumbelliferone (4MU) upon hydrolysis of the aryl ether bond was monitored by the increase in fluorescence at λex=360 nm and λem=450 nm using a Spectramax UV/visible/fluorescent spectrophotometer.
The total protein concentrations of the cell lysates were determined using the BCA reagent system for protein quantification (Pierce).
Induction might be also performed using IPTG concentrations in the range of 0.01-1 mM. Cell disruption might be also performed using toluene permeabilization, French pressure techniques, or using multiple freeze/thaw cycles in conjunction with lysozyme. Assay conditions might be varied to include TrisHCl at 10-150 mM concentrations and in the pH range of 6.5-8.5; 0-2 mM dithiothreitol; 0.05-2 mM glutathione; 0.01-5 mM MUAV substrate; 22-42° C. reaction temperatures. The biochemical assay might be performed as a fixed time point assay with reaction times ranging from 5 minutes-12 hours, or performed continuously without quenching with glycine/NaOH buffer to extract enzyme kinetic parameters.
In the case of B1, the “total activity (beta-etherase)” value is reported as 529 rfu/ug.
For B2, the “total activity (beta-etherase)” value was 1206 rfu/ug.
For B3, the “total activity (beta-etherase)” value was 7 rfu/ug.

Same assay, conditions: MUAV substrate
In the case of B4, the “beta-etherase activity on the MUAV substrate (in words)” value (from here on “beta-etherase activity … (in words)”) is reported as “beta-etherase activity”.
In the case of B1, the “beta-etherase activity … (in words)” value is reported as “beta-etherase activity” and the “fold more efficient than S. paucimobilis ligE beta-etherase enzyme” value is reported as “approximately 75 fold”.
For B2, the “beta-etherase activity … (in words)” value was “beta-etherase activity” and the “fold more efficient than S. paucimobilis LigF protein” value was “approximately 2 fold”.
With B5 the “beta-etherase activity … (in words)” value was “beta-etherase activity”.

System: Saccharomyces cerevisiae
Test: not given
Conditions: each compound alone; cited from earlier work
For COc1ccc(C=O)cc1OC [Veratraldehyde], the “antifungal activity against the yeast Saccharomyces cerevisiae” value (shortened to “antifungal activity”) is given as “significant antifungal activities”.
For O=C(O)C=Cc1ccccc1 [cinnamic acid], the “antifungal activity” value is listed as “significant antifungal activities”.
For O=C(O)/C=C/c1cccc(O)c1 [m-coumaric acid], the “antifungal activity” value is given as “significant antifungal activities”.
In the case of O=C(O)/C=C/c1ccccc1O [o-coumaric acid], the “antifungal activity” value is given as “significant antifungal activities”.
In the case of O=C(O)/C=C/c1ccc(O)cc1 [p-coumaric acid], the “antifungal activity” value is given as “significant antifungal activities”.
In the case of COc1cc(C(=O)O)ccc1O [vanillic acid], the “antifungal activity” value is given as “significant antifungal activities”.
For COc1cc(CCC(C)=O)ccc1O [vanillylacetone], the “antifungal activity” value is listed as “significant antifungal activities”.

System: not given
Test: not given
Conditions: LigDFEG gene cluster, FIG. 2B; cited from earlier work
In the case of “LigD: S. paucimobilis C alpha-dehydrogenase, ligD gene product”, the “enzyme activity shown by gene product” value is listed as “Cα-dehydrogenase activity”.
In the case of B6, the “enzyme activity shown by gene product” value is given as “glutathione lyase activity”.
For B3, the “enzyme activity shown by gene product” value is given as “β-etherase activity”.

System: Escherichia coli
Test: not given
Conditions: benzaldehyde derivatives, each alone; cited from earlier work
For O=Cc1ccc(O)c(O)c1O [2,3,4-trihydroxybenzaldehyde], the “antibacterial activity against Escherichia coli” value is listed as “antibacterial activity”.
For O=Cc1cccc(O)c1O [2,3-dihydroxybenzaldehyde], the “antibacterial activity against Escherichia coli” value is given as “antibacterial activity”.
In the case of O=Cc1c(O)cc(O)cc1O [2,4,6-trihydroxybenzaldehyde], the “antibacterial activity against Escherichia coli” value is listed as “antibacterial activity”.
In the case of O=Cc1ccc(O)cc1O [2,4-dihydroxybenzaldehyde], the “antibacterial activity against Escherichia coli” value is given as “antibacterial activity”.
For O=Cc1cc(O)ccc1O [2,5-dihydroxybenzaldehyde], the “antibacterial activity against Escherichia coli” value is given as “antibacterial activity”.
For COc1cccc(C=O)c1O [2-hydroxy-3-methoxybenzaldehyde], the “antibacterial activity against Escherichia coli” value is given as “antibacterial activity”.
In the case of COc1ccc(O)c(C=O)c1 [2-hydroxy-5-methoxybenzaldehyde], the “antibacterial activity against Escherichia coli” value is listed as “antibacterial activity”.
In the case of O=Cc1ccccc1O [2-hydroxybenzaldehyde], the “antibacterial activity against Escherichia coli” value is given as “antibacterial activity”.
For COc1cc(O)cc(OC)c1C=O [4-hydroxy-2,6-dimethoxybenzaldehyde], the “antibacterial activity against Escherichia coli” value is given as “antibacterial activity”.

Same assay, conditions: each compound alone; known; cited from earlier work
In the case of O=Cc1ccc(O)cc1 [4-hydroxybenzaldehyde], the “antimicrobial activity against Escherichia coli” value is listed as “antimicrobial activity”.
In the case of O=Cc1ccc(CO)o1 [5-hydroxymethylfurfural], the “antimicrobial activity against Escherichia coli” value is given as “antimicrobial activity”.
In the case of O=Cc1ccco1 [furfural], the “antimicrobial activity against Escherichia coli” value is listed as “antimicrobial activity”.
For COc1cc(C=O)cc(OC)c1O [syringaldehyde], the “antimicrobial activity against Escherichia coli” value is given as “antimicrobial activity”.
In the case of COc1cc(C=O)ccc1O [vanillin], the “antimicrobial activity against Escherichia coli” value is listed as “antimicrobial activity”.
